Results: article PMC11672750, “PfGSTF2 endows resistance to quizalofop‐p‐ethyl in Polypogon fugax by GSH conjugation” (Plant Biotechnology Journal, 2024)

Tested on: PfGSTF58
Assay: absorbance at […] nm, Michaelis-Menten fit
Type: biochemical, Polypogon fugax
Conditions: GSH co-substrate; 30 °C

Compound `O=[N+]([O-])c1ccc(Cl)c([N+](=O)[O-])c1` [1-chloro-2,4-dinitrobenzene] has a Km of 450 ± 90 µM.
